# Reference: patent publication US10562898B2, “Substituted benzenesulfonamides as inhibitors of alpha-4 beta-7 integrin activity” (EA PHARMA CO., LTD., priority 2016, dated 2020)
# Target: T1, α4β7 integrin (Homo sapiens, UniProt P13612+P26010)
# T1 construct: a cell line RPMI-8866, which is known to express α4β7 integrin; endogenous in cells; host or cells: RPMI-8866 (human B cell line)
# T1 sequence (P13612 34-1032): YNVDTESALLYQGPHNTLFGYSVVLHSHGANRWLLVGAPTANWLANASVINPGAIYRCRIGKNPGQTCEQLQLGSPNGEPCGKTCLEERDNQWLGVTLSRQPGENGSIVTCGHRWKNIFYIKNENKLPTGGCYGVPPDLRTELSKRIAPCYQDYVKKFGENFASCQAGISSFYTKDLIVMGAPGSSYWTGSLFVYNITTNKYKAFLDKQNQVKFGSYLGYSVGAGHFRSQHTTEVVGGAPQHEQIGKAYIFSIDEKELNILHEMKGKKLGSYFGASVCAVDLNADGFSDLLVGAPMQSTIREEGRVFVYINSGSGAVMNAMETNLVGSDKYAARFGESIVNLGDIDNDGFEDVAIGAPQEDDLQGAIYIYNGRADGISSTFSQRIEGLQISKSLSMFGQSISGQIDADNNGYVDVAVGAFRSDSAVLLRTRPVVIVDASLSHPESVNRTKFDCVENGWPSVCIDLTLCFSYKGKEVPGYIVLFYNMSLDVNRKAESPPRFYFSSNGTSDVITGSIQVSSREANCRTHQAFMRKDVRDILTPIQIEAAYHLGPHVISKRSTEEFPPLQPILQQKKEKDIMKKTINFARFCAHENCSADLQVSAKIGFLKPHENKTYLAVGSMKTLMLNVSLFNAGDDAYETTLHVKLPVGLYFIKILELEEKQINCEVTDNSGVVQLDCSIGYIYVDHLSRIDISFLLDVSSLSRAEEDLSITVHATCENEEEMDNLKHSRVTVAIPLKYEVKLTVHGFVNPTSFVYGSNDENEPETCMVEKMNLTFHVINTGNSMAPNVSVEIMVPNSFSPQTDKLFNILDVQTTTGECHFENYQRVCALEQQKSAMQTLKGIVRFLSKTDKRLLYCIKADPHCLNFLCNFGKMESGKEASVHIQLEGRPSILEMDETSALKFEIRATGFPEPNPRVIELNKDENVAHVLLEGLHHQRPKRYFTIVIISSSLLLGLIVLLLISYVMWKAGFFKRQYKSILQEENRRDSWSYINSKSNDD
# T1 sequence (P26010 20-798): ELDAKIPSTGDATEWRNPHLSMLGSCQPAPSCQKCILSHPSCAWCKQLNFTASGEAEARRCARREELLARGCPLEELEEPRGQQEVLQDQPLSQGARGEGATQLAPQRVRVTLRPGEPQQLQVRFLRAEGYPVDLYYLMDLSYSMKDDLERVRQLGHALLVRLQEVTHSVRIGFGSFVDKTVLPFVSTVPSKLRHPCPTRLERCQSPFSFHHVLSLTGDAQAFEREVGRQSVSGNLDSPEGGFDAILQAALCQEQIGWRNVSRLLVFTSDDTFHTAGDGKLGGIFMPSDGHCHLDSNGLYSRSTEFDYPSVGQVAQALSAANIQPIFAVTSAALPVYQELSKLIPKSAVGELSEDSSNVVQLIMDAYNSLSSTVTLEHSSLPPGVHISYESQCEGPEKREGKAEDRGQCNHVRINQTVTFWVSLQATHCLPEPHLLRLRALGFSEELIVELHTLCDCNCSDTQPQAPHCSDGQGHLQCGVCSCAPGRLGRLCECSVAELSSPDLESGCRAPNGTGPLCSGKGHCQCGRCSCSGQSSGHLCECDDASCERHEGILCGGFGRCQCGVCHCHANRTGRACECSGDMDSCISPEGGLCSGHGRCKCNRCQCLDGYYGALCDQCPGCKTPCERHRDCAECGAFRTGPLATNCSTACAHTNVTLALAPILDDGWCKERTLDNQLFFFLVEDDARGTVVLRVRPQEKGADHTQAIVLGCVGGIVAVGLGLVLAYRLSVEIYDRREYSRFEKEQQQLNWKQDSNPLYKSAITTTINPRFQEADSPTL
# Test: MAdCAM-1/α4β7 integrin binding inhibitory activity evaluation test in presence of serum
# Assay type: cell-based
# Conditions: RPMI-8866 cells, recombinant mouse MAdCAM-1/Fc, 50% human serum; read-out: α4β7 Serum Added IC50
# Experimental: (3) MAdCAM-1/α4β7 Integrin Binding Inhibitory Activity Evaluation Test in Presence of Serum (1)
# Each test substance was measured in terms of an ability to inhibit the MAdCAM-1 binding of a human B cell line, namely, a cell line RPMI-8866, which is known to express α4β7 integrin.
# A solution of recombinant mouse MAdCAM-1/Fc (R&D Systems, Inc.) (1 μg/mL) diluted with a buffer A (carbonate buffer, pH 9.6) was added in an amount of 50 μL/well to a 96-well microtiter plate, followed by incubation at 4° C. overnight. After the plate was washed with PBS once, 150 μL/well of Block Ace (Snow Brand Milk Products Co., Ltd.) was added, followed by incubation at room temperature for 2 hours. After removal, the plate was washed with PBS once.
# Then, 100 μL of the RPMI-8866 cells (2×10^6 cells/mL) and 100 of the test substance at each of various concentrations diluted with a binding buffer (DMEM containing 40 mM HEPES, 0.2% BSA, and 4 mM MnCl2) were added to the plate coated with the MAdCAM-1/Fc (5×10^5 cells/well) such that 50% human serum was contained at the final concentration. Then, incubation was allowed to proceed at 30° C. for 15 to 60 minutes. After the cells were bound to the wells, the plate was washed with PBS to remove unbound cells. A buffer C (PBS containing 1.5% Triton X-100) was added in an amount 50 μL/well to the plate to lyse the bound RPMI-8866 cells. After 30 μL of a substrate buffer (Promega, CytoTox 96 Non-Radioactive Cytotoxicity Assay) was added to 30 μL of the cell lysate, a reaction was allowed to proceed at room temperature in the dark for 30 minutes. After 30 μL of a stop solution (Promega, CytoTox 96 Non-Radioactive Cytotoxicity Assay) was added to each, and then an absorbance at 490 nm was measured using a plate reader. The absorbance obtained here represents a detection result of an activity of lactate dehydrogenase (LDH) eluted in the supernatant of each well, that is, the absorbance is proportional to the number of RPMI-8866 cells bound to the MAdCAM-1 and thus remaining on the plate. The test was performed in duplicate. Provided that the absorbance of the well containing no test substance was 100%, a cell binding rate with the test substance at each of the various concentrations was figured out, and a concentration IC50 which brought about 50% binding inhibition was calculated.
row,Structure (SMILES),IC50
1,Cn1ccc(=O)n(-c2ccc(C[C@H](NC(=O)c3cc(F)c(NS(=O)(=O)c4ccc(NC(=O)C(C)(C)C(F)(F)F)cc4)cc3F)C(=O)O)cn2)c1=O [Compound A57],14 nM
2,Cc1cn(C)c(=O)n(-c2ccc(C[C@H](NC(=O)c3cc(F)c(NS(=O)(=O)c4ccc(NC(=O)C(C)(C)C(F)(F)F)cc4)cc3F)C(=O)O)cn2)c1=O [Compound A58],12 nM
3,Cn1ccc(=O)n(-c2ccc(C[C@H](NC(=O)c3cc(F)c(NS(=O)(=O)c4ccc(NC(=O)C5(C#N)CC5)cc4)cc3F)C(=O)O)cn2)c1=O [Compound A59],93 nM
4,Cc1cn(C)c(=O)n(-c2ccc(C[C@H](NC(=O)c3cc(F)c(NS(=O)(=O)c4ccc(NC(=O)C5(C#N)CC5)cc4)cc3F)C(=O)O)cn2)c1=O [Compound A60],52 nM
5,CCC(CC)C(=O)Nc1ccc(S(=O)(=O)Nc2cc(F)c(C(=O)N[C@@H](Cc3ccc(-n4c(=O)ccn(C)c4=O)nc3)C(=O)O)cc2F)cc1 [Compound A61],62 nM
6,Cn1ccc(=O)n(-c2ccc(C[C@H](NC(=O)c3cc(F)c(NS(=O)(=O)c4ccc(NC(=O)C(C)(C)CO)cc4)cc3F)C(=O)O)cn2)c1=O [Compound A62],22 nM
7,Cc1cn(C)c(=O)n(-c2ccc(C[C@H](NC(=O)c3cc(F)c(NS(=O)(=O)c4ccc(NC(=O)C(C)(C)CO)cc4)cc3F)C(=O)O)cn2)c1=O [Compound A63],12 nM
8,Cn1ccc(=O)n(-c2ccc(C[C@H](NC(=O)c3cc(F)c(NS(=O)(=O)c4ccc(NC(=O)C5CCCC5)cc4)cc3F)C(=O)O)cn2)c1=O [Compound A64],89 nM
9,Cc1cn(C)c(=O)n(-c2ccc(C[C@H](NC(=O)c3cc(F)c(NS(=O)(=O)c4ccc(NC(=O)C5CCCC5)cc4)cc3F)C(=O)O)cn2)c1=O [Compound A65],50 nM
10,Cn1c(C(F)(F)F)cc(=O)n(-c2ccc(C[C@H](NC(=O)c3cc(F)c(NS(=O)(=O)c4ccc(NC(=O)C(C)(C)C)cc4)cc3F)C(=O)O)cn2)c1=O [Compound A66],25 nM
11,Cn1cc(C(F)(F)F)c(=O)n(-c2ccc(C[C@H](NC(=O)c3cc(F)c(NS(=O)(=O)c4ccc(NC(=O)C(C)(C)C)cc4)cc3F)C(=O)O)cn2)c1=O [Compound A67],14 nM
12,Cc1cn(C)c(=O)n(-c2ccc(C[C@H](NC(=O)c3cc(F)c(NS(=O)(=O)c4ccc(NC(=O)C#CC(C)(C)C)cc4)cc3F)C(=O)O)cn2)c1=O [Compound A68],33 nM
13,Cc1cn(C)c(=O)n(-c2ccc(C[C@H](NC(=O)c3cc(F)c(NS(=O)(=O)c4ccc(NC(=O)C(C)(C)C)cc4)cc3F)C(=O)O)nc2)c1=O [Compound A69],16 nM
14,Cn1ccc(=O)n(-c2ccc(C[C@H](NC(=O)c3cc(F)c(NS(=O)(=O)c4ccc(NC(=O)C(C)(C)C)cc4)cc3F)C(=O)O)nc2)c1=O [Compound A70],33 nM
15,Cc1cn(C)c(=O)n(-c2ccc(C[C@H](NC(=O)c3cc(F)c(NS(=O)(=O)c4ccc(NC(=O)C(C)C)cc4)cc3F)C(=O)O)cn2)c1=O [Compound A71],43 nM
16,Cc1cc(=O)n(-c2ccc(C[C@H](NC(=O)c3cc(F)c(NS(=O)(=O)c4ccc(NC(=O)C(C)(C)C)cc4)cc3F)C(=O)O)nc2)c(=O)n1C [Compound A72],28 nM
17,Cc1cn(C)c(=O)n(-c2ccc(C[C@H](NC(=O)c3cc(F)c(NS(=O)(=O)c4ccc(NC(=O)C(C)(C)C)s4)cc3F)C(=O)O)cn2)c1=O [Compound A73],37 nM
18,Cc1cn(C)c(=O)n(-c2ccc(C[C@H](NC(=O)c3cc(F)c(NS(=O)(=O)c4ccc5c(NC(=O)C(C)(C)C)c[nH]c5c4)cc3F)C(=O)O)cn2)c1=O [Compound A74],50 nM
19,"CN1CCC(=O)N(c2ccc(C[C@H](NC(=O)c3cc(F)c(NS(=O)(=O)c4ccc(NC(=O)C(C)(C)C)cc4)cc3F)C(=O)O)cn2)C1=O [Compound A75, (2S)-2-[2,5-difluoro-4-[(4-pivalamidophenyl)sulfonamide]benzamido]-3-[6-(3-methyl-2,6-dioxotetrahydropyrimidin-1(2H)-yl)pyridin-3-yl]propanoic acid]",16 nM
20,Cc1cn(C)c(=O)n(-c2ccc(C[C@H](NC(=O)c3cc(F)c(NS(=O)(=O)c4cc5cc(NC(=O)C(C)(C)C)ccc5[nH]4)cc3F)C(=O)O)cn2)c1=O [Compound A76],14 nM
21,Cc1cn(C)c(=O)n(-c2ccc(C[C@H](NC(=O)c3cc(F)c(NS(=O)(=O)c4c[nH]c5cc(NC(=O)C(C)(C)C)ccc45)cc3F)C(=O)O)cn2)c1=O [Compound A77],25 nM
